Experimental data as given in article PMC11063903, “Engineering a human P2X2 receptor with altered ligand selectivity in yeast” (The Journal of Biological Chemistry, 2024).

Columns and labels:
[1] = system: P2X2; details: mammalian cells; cited from earlier work
[2] = molecular target: T1, human P2X2 receptor (Homo sapiens, UniProt Q9UBL9); test: GCaMP calcium assay of P2X2 expressed in yeast S. cerevisiae, agonist response; assay type: cell-based; details: yeast; for EC50: read-out: EC50
T1 construct: expressed in transfected cells; host or cells: S. cerevisiae BY4741 background, P2X2 genome-integrated under a galactose-inducible promoter
T1 sequence (Q9UBL9 1-471): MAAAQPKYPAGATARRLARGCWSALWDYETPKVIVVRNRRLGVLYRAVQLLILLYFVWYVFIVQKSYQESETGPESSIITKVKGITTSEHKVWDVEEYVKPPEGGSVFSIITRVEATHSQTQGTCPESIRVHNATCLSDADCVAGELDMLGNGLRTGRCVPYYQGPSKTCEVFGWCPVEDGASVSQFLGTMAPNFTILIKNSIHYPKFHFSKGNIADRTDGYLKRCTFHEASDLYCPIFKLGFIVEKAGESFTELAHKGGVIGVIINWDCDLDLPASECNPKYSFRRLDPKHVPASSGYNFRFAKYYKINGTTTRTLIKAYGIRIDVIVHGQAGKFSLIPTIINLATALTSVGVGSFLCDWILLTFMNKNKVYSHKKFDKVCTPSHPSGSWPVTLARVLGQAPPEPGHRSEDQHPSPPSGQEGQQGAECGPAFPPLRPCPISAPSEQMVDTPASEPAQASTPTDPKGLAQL
Source text: Although P2X receptors are expressed in many eukaryotic organisms including some fungi ([24]), they are not present in S. cerevisiae. For recombinant expression to yield functional P2X channels, receptor proteins must be correctly folded, assembled into trimers, and efficiently trafficked to the plasma membrane. To assess whether P2X ion channels could functionally gate in S. cerevisiae the canonical isoforms of P2X1-7 were co-expressed with aequorin, a calcium-activated photoprotein from the jellyfish Aequorea victoria.
(§1) Genetic knockouts of the calnexin homolog (ΔCne1p) and vacuolar calcium transporter (Δ Vcx1p) (n = 3) were compared to the WT yeast strain (n = 2). […] Statistical analysis was performed using one-way ANOVA with Dunnett’s multiple comparisons test where ∗∗ is p ≤ 0.01. […] Yeast were injected with ATP at 21 s and onset rates from the last six points (40–48 s) were used for calculating the dose response in (D). E and F, kinetic and dose–response measurements of P2X2 with the GCaMP reporter with ATP (n = 4), partial agonist BzATP (n = 3), and agonist 2-chloro-ATP (n = 4). Figures (D and F) share the figure legend with (C). […] Suramin was pre-equilibrated with P2X2-yeast for 10 min and 5 μM ATP was injected.
To expand the assay throughput to accommodate several 96-well plates at a time, we required the acquisition of short-duration signals. Since GCaMP signals are typically measured in terms of ΔF/F0, where ΔF is Fmax-Fmin, and since the signal takes several minutes to reach Fmax, we instead attempted to correlate the rate of signal onset (rather than its amplitude) with channel activity.
Having optimized our yeast strains and assay throughput, we sought to further validate the function of human P2X2 in the yeast host.
GCaMP assays were performed as follows. P2X2 GCaMP strains were designed with a bi-cistronic reporter, in which the GCaMP protein was followed by a 2A peptide and a mScarletI reporter ([53]). The co-translated mScarletI was designed to act as a control for plasmid loss, GCaMP breakage via nonsense mutation, and contamination. […] P2X2-GCaMP strains were cultured and induced as previously described. Samples were induced for 24 h to allow for the accumulation of the mature GCaMP protein. Cells were washed three times in 0.1 M MES/Tris buffer and resuspended with MES/Tris with supplemental calcium. Cells were loaded onto a black, clear bottom microplate and imaged on a FlexStation3 plate reader. Samples were imaged in “flex” mode. Samples were imaged for 48 s at an interval of 1.6 s. Fluorescence was measured with an excitation at 485 nm, and emission 525 nm. At the 21 s mark, 100 μl ligand solution was transferred to the cells. For strains with mScarlet, fluorescence was read with excitation 570 nm/emission 610 nm. Slopes were calculated from the last 6 points of measurement and were normalized to the positive control samples. Any replicate in which the mScarlet value was measured to be over 2 standard deviations less than the mean for that set was discarded from further analysis.

[3] = system: P2X2; parameters: method as in PMID 12885270; details: read-out: reported IC50 values; cited from earlier work
[4] = molecular target: T1, human P2X2 receptor; test: Suramin inhibition of ATP-stimulated P2X2 gating in yeast, GCaMP; assay type: cell-based; details: suramin pre-equilibrated 10 min, 5 μM ATP injected, n = 4; read-out: IC50 (second value in brackets) (converted)
Protocol: as §1, with “injected. […]” for “injected.”
GCaMP assays were performed as follows. […] Cells were loaded onto a black, clear bottom microplate and imaged on a FlexStation3 plate reader. […] Fluorescence was measured with an excitation at 485 nm, and emission 525 nm. […] For strains with mScarlet, fluorescence was read with excitation 570 nm/emission 610 nm. Slopes were calculated from the last 6 points of measurement and were normalized to the positive control samples. Any replicate in which the mScarlet value was measured to be over 2 standard deviations less than the mean for that set was discarded from further analysis.

[5] = kinetic and dose-response GCaMP assay, Fig. 1E-F

Compound	EC50 [1]	EC50 [2, 5]	peak amplitudes relative to the canonical ATP ligand ([2]; GCaMP kinetic assay)	pEC50 [2, 5]	IC50 [3]	IC50 [4]
Nc1nc(Cl)nc2c1ncn2[C@@H]1O[C@H](COP(=O)(O)OP(=O)(O)OP(=O)(O)O)[C@@H](O)[C@H]1O [2-Chloro ATP, 2-Chloro-Adenosinetriphosphate]	2.5 µM	1 µM				
2′(3′)-O-(4-Benzoylbenzoyl)adenosine-5′-triphosphate [BzATP]		1.28 µM	less than 50%	5.89 ± 0.096 M		
Cc1ccc(C(=O)Nc2ccc(S(=O)(=O)O)c3cc(S(=O)(=O)O)cc(S(=O)(=O)O)c23)cc1NC(=O)c1cccc(NC(=O)Nc2cccc(C(=O)Nc3cc(C(=O)Nc4ccc(S(=O)(=O)O)c5cc(S(=O)(=O)O)cc(S(=O)(=O)O)c45)ccc3C)c2)c1 [suramin]					10 µM	26.9 µM
